Test results taken from patent US8796201B2 (The Board of Trustees of the Leland Stanford Junior …, priority 2002, dated 2014).
Entries after “also recorded” stand apart in the source; their conditions may differ. Each block holds one compound with its values, some of them ahead of it. Where no end group is shown, it is not given here.

What was measured:
EPB2 = biological target: T1, EPB2 (Hordeum vulgare, UniProt P25250); test: Inhibition of EPB2 α2-gliadin digestion; type: biochemical, barley (Hordeum vulgare subsp. vulgare)
T1 construct: made in house; host or cells: E. coli BL21, plasmid pMTB1 (pET28b), inclusion bodies solubilised in 7 M urea
Text: The pH optimum of proEPB2 activation and α2-gliadin digestion is 2.4-3.5, which can therefore provide a treatment for Celiac Sprue consisting of oral administration of proEPB2.

[1] = tested on: gastric and pancreatic proteases; test: Gastric and pancreatic protease digestion of recombinant α2-gliadin; type: in vitro ADME; settings: extended reaction times
Text: […]. […] No long intermediate is observed to accumulate.

[2] = tested on: human brush border membrane (BBM); type: in vitro ADME; settings: kidney or brush border membranes, 100 μM
Text: (SEQ ID NO:12) […]

[3] = tested on: rat brush border membrane (BBM) peptidases; type: in vitro ADME; settings: kidney or brush border membranes
Procedure: To investigate the digestion of gluten, liquid chromatography coupled mass spectroscopy analysis (LC-MS-MS) was utilized to investigate the pathways and associated kinetics of hydrolysis of immunodominant gliadin peptides treated with rat BBM preparations. Because the rodent is an excellent small animal model for human intestinal structure and function, rat BBM was chosen as a suitable model system for these studies.
BBM fractions were prepared from rat small intestinal mucosa as described in Ahnen et al. (1982) J. Biol. Chem. 257, 12129-35. […] No proline aminopeptidase (EC 3.4.11.5) or prolyl endopeptidase activity (PEP, EC 3.4.21.26) activity was detectable (<5 μU/μg). Alkaline phosphatase and sucrase were used as control BBM enzymes with activities of 66 μU/μg and 350 μU/μg, respectively.
BBM fractions were partially purified from the small intestinal mucosa of adult female rats maintained on an ad libitum diet of wheat-based standard rodent chow. Total protein content was determined by a modified method of Lowry with BSA as a standard. Alkaline phosphatase activity was determined with nitrophenyl phosphate. Sucrase activity was measured using a coupled glucose assay. […] PEP activity was determined continuously with 0.4 mM Z-Gly-Pro-pNA in PBS:H2O:dioxane (8:1.2:0.8) at 30° C. One unit is the consumption of 1 μmol substrate per minute.
Proteolysis with the BBM preparation was investigated using the peptide (SEQ ID NO:1) […], a product of chymotryptic digestion of α-9 gliadin (Arentz-Hansen et al. (2000) J. Exp. Med. 191, 603-12). […] It was subjected to BBM digestion, followed by LC-MS-MS analysis. A standard 50 μl digestion mixture contained 100 μM of synthetic peptide, 10 μM tryptophan and Cbz-tryptophan as internal standards, and resuspended BBM preparations with a final protein content of 27 ng/μl and exogenous proteins, as indicated, in phosphate buffered saline. After incubation at 37° C. for the indicated time, the enzymes were inactivated by heating to 95° C. for 3 minutes. The reaction mixtures were analyzed by LC-MS (SpectraSystem, ThermoFinnigan) using a C18 reversed phase column (Vydac 218TP5215, 2.1×150 mm) with water:acetonitrile:formic acid (0.1%):trifluoroacetic acid (0.025%) as the mobile phase (flow: 0.2 ml/min) and a gradient of 10% acetonitrile for 3 minutes, 10-20% for 3 minutes, 20-25% for 21 minutes followed by a 95% wash. Peptide fragments in the mass range of m/z=300-2000 were detected by electrospray ionization mass spectroscopy using a LCQ ion trap and their identities were confirmed by MSMS fragmentation patterns.
BBM fractions were prepared from rat small intestinal mucosa.

[4] = In vivo perfusion of peptides through rat jejunum; settings: 15-20 cm jejunum segment, residence time 20 min
Procedure: FIG. 5. In vivo brush border membrane digestion of peptides.
In Vivo Endopeptidase Activity. An adult (female or male) rat was anesthetized and maintained at 36-37° C. during the entire surgical procedure. The peritoneal cavity was opened, and a small incision was made at the beginning and the end of a 15-20 cm jejunum segment. Polyethylene catheters were inserted and secured into the two ends. The input catheter was connected with a pump-driven syringe filled with a solution. The jejunum segment was perfused initially with PBS buffer to remove any residual debris at a flow rate of 0.4 ml/min. Purified peptide solutions (peptide concentration ranges from 25-100 μM) were then perfused at 0.4 ml/min through the jejunum segment with a 10-40 min residence time. In the case of a co-perfusion, the input catheter is connected with two simultaneous syringes, one with a peptide solution and the other with the prolyl endopeptidase solution (concentration ranges from 50-500 μU/μl). Fluid from the output catheter was collected into small centrifuge tubes in dry ice for subsequent analysis. The collected digestive products were analyzed by HPLC on a C18 column.

[5] = BBM with captopril in phosphate buffered saline:Tris buffered saline=9:1; settings: rat, up to overnight
[6] = tested on: carboxypeptidase A (C-0261, Sigma) and/or leucine aminopeptidase (L-5006, Sigma); test: 10 μg/ml carboxypeptidase A and/or 5.9 μg/ml leucine aminopeptidase; settings: 37° C., up to 160 min
[7] = rat brush border membrane (BBM) protein preparations, 27 ng/μl, in phosphate buffered saline; settings: 37° C, up to overnight
[8] = resuspended rat brush border membrane (BBM) preparations in phosphate buffered saline; settings: 37° C.
chymotrypsin = test: chymotrypsin
elastase = elastase at a high (non-physiological) concentration of 100 ng/μl
trypsin = test: trypsin
[9] = tested on: rabbit lung DCP (Cortex Biochemicals, CA); test: BBM with exogenous rabbit lung DCP in phosphate buffered saline:Tris buffered saline=9:1; settings: rat, up to overnight
[10] = tested on: prolyl endopeptidase (PEP, specific activity 28 μU/pg) from Flavobacterium meningosepticum (US Biological, MA); test: 27 ng/μl brush border membranes with exogenous prolyl endopeptidase from Flavobacterium meningosepticum; settings: rat, up to one hour
[11] = tested on: DPP IV from Aspergillus fumigatus; test: rat BBM with exogenous DPP IV from Aspergillus fumigatus (0.28 μU DPP IV/ng BBM protein); settings: 37° C., up to four hours

T1 sequence (P25250 134-373): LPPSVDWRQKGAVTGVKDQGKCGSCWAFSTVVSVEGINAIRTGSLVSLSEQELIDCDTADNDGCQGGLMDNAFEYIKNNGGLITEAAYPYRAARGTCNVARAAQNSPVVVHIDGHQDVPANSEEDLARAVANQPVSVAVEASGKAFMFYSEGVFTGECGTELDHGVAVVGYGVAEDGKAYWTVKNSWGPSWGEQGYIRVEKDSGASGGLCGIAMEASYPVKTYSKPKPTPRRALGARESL

Compound: CC(=O)N[C@@H](CC(C)C)C(=O)N[C@@H](CC(C)C)C(=O)N[C@H](C=O)CCCNC(=N)N [leupeptin]
effect on α2-gliadin digestion by EPB2 (EPB2): inhibits this activity

Compound: LQLQPFPQPQLPYPQPQLPYPQPQLPYPQPQPF [33-mer]
stability toward gastric and pancreatic proteases [1]: remained intact despite prolonged exposure to proteases
Amount of Peptides Digested after 15 hours [2]: <20%
half-life of digestion [3]: > 20 h
stability in the perfusion experiment [4]: most of the 33-mer gliadin peptide remained intact

fragment found [5]: PQPQLPYPQPQLP
fragment found [6]: PQPQLPYPQPQLP
not cleaved [7]: no observed N-terminal processing
cleaved bond [8]: P-Y, first_seen
not cleaved (chymotrypsin): No proteolysis was detected
cleaved bond (elastase): Q-L
not cleaved (trypsin): No proteolysis was detected
fragment found [9]: PQPQLPYPQPQLP
Compound: PQPQLPYPQPQLPY

cleaved bond [10]: P-Q, major
fragment found [6]: QLQPFPQPQLP; also recorded: QPFPQPQLP
fragment found [11]: QLQPFPQPQLP
Compound: QLQPFPQPQLPY
